According to PMC7044277 (Nature Communications, 2020):
“Also recorded” adds a separate entry of the source.

Tests used:
[1] = biological target: DRD2 (D2 long receptor) wild-type (Homo sapiens, UniProt P14416); test: Radioligand competition binding, [3H]-N-methylspiperone, HEK293T membranes; conditions: Ki
DRD3 wild-type = DRD3 wild-type (Homo sapiens, UniProt P35462); test: Radioligand competition binding, [3H]-N-methylspiperone
[2] = biological target: T1, DRD4 (D4.4 variant) wild-type (Homo sapiens, UniProt P21917); test: as above; conditions: Ki
T1 sequence (P21917 1-419): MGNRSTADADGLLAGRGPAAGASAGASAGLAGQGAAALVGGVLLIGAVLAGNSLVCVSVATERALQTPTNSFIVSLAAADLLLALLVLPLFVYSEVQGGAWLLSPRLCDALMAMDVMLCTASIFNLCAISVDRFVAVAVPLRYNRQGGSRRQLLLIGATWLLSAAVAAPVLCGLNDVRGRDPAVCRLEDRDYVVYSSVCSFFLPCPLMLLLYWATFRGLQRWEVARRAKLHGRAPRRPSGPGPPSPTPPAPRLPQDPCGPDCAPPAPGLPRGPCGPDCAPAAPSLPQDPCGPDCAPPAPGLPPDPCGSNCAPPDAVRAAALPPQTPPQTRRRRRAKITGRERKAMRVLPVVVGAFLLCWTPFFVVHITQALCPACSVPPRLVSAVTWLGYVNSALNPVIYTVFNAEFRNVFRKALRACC

DRD2 (D2 long receptor) [3] = biological target: T2, DRD2 (D2 long receptor) (Homo sapiens, UniProt P14416); test: Gαi/o-mediated cAMP inhibition (GloSensor split-luciferase cAMP reporter), HEK293T; format: cell-based;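 further: compounds applied 15 min at room temperature, then luciferin plus 400 nM isoproterenol to raise cAMP through endogenous β2-adrenergic receptors, luminescence read 15 min later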
T2 sequence (P14416 whole entry): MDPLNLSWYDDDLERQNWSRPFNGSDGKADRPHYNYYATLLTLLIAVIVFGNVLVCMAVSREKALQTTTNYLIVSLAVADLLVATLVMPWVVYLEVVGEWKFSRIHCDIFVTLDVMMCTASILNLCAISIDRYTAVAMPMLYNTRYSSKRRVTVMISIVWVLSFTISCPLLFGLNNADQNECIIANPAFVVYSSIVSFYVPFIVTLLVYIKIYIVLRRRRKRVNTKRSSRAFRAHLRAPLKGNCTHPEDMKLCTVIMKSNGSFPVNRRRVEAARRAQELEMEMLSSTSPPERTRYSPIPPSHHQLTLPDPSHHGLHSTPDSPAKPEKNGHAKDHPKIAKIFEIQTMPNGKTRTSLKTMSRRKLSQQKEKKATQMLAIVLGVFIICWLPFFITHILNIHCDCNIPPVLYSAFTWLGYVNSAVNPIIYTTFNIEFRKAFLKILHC

DRD3 [4] = biological target: T3, DRD3 (Homo sapiens, UniProt P35462); test: Gαi/o-mediated cAMP inhibition (GloSensor); format: cell-based
T3 sequence (P35462 whole entry): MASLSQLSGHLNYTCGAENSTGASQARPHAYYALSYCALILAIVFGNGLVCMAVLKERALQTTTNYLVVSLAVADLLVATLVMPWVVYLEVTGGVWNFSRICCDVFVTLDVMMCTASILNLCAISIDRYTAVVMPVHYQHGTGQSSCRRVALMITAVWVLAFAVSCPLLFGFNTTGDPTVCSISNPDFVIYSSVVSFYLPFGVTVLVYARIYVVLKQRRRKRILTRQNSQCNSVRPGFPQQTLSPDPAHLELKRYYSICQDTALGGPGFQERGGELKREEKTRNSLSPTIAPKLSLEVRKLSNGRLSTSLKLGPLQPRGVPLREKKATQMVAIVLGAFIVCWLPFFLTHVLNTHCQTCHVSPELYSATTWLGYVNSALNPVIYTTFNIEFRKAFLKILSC

DRD4 (D4.4 variant) [5] = biological target: T4, DRD4 (D4.4 variant) (Homo sapiens, UniProt P21917); test: Gαi/o-mediated cAMP inhibition (GloSensor); format: cell-based
T4 sequence (P21917 1-419): T1 sequence (P21917 1-419)

DRD2 S1975.46G = biological target: T5, DRD2 S1975.46G (Homo sapiens, UniProt P14416, S197G); test: Gαi/o-mediated cAMP inhibition (GloSensor), mutant; format: cell-based; conditions: DRD2 Ser197^5.46Gly; G-protein assay
T5 construct: expressed in transfected cells; host or cells: HEK293T (ATCC CRL-11268)
T5 sequence (P14416 whole entry S197G): as the sequence (P14416 whole entry) above, with S197G counted along it

DRD2 (D2 long receptor) [6] = biological target: T2, DRD2 (D2 long receptor); test: β-arrestin2 recruitment (Tango), HTLA cells; format: cell-based
DRD3 [7] = biological target: T3, DRD3; test: β-arrestin2 recruitment (Tango); format: cell-based
DRD4 (D4.4 variant) [8] = biological target: T4, DRD4 (D4.4 variant); test: β-arrestin2 recruitment (Tango); format: cell-based
DRD2 F1103.28A = DRD2 F1103.28A (Homo sapiens, UniProt P14416, F110A); conditions: cited from earlier work
DRD2 F1103.28A, sequence (P14416 whole entry F110A): as the sequence (P14416 whole entry) above, with F110A counted along it

[9] = read-out: Emax relative to quinpirole response

DRD3 wild-type, sequence (P35462 whole entry): as the sequence (P35462 whole entry) above
DRD2 (D2 long receptor) wild-type, sequence (P14416 whole entry): as the sequence (P14416 whole entry) above

Compound	Ki [1]	Ki (DRD3 wild-type)	Ki [2]	EC50 (DRD2 (D2 long receptor) [3])	Emax (DRD2 (D2 long receptor) [3]; HEK-293T, read-out: Emax relative to quinpirole response)	EC50 (DRD3 [4])	Emax (DRD3 [4]; [9])	EC50 (DRD4 (D4.4 variant) [5])	G protein agonist activity (DRD4 (D4.4 variant) [5]; DRD4, cAMP inhibition)	agonism after serine to glycine substitution (DRD2 S1975.46G)	EC50 (DRD2 (D2 long receptor) [6])	Emax (DRD2 (D2 long receptor) [6]; HTLA, read-out: Emax relative to quinpirole response)	EC50 (DRD3 [7])	Emax (DRD3 [7]; [9])	EC50 (DRD4 (D4.4 variant) [8])	β-arrestin2 recruitment agonist activity (DRD4 (D4.4 variant) [8]; DRD4, Tango)	effect of Phe110^3.28Ala mutation on binding (DRD2 F1103.28A)
CC(CCc1ccccc1[N+](=O)[O-])NCC1(O)CCCCC1 (centres unmarked) [O7LE6]	1410 nM	174 nM	> 10 µM	1.13 nM	100%	1.96 nM	82.7%	> 10 µM	no DRD4 activity	substantially diminished	6.95 nM	85.3%	117 nM	88.5%	> 10 µM	no DRD4 activity	
CNc1cc(OC)c(C(=O)NC2CCN(Cc3ccccc3)C2C)cc1Cl (centres unmarked) [nemonapride]																	did not enhance the binding; also recorded: didn’t enhance the binding
